Reference: patent EP0449955B1, “SYNTHETIC HIV-LIKE PEPTIDES, THEIR COMPOSITIONS AND USES” (CLARITY TECHNOLOGIES INCORPORATED, priority 1988, dated 1996)

Test system: antibodies to HIV-2
Assay: Rapid EIA with latex-immobilized peptide reagents, HIV-2
Type: binding
Settings: free peptide passively adsorbed onto carboxylate latex
Method: A 125 microliter volume of 10% latex was added to a 375 microliter volume of deionized water, and mixed with an equal volume (0.5ml) of 1M carbodiimide, pH 4.5. The mixture was shaken gently a room temperature for 1 hour, and then washed 3 times by centrifugation at 9,000 x g for 10 minutes, removal of supernate, and resuspension of the pellet in a 12-14 ml volume of deionized water, pH 4.5. The free peptides at 1 mg/ml concentration (500 micrograms/ml of each peptide 4S36 and 5S70), or the peptide-BSA conjugate of peptides 4S36 and 5S70 at 500 micrograms/ml were added to the final washed activated latex pellet (1 ml volume of peptide containing solution per 125 microliters original volume of latex). […] It was determined that this stock solution of latex coated with peptide-BSA conjugate could be diluted 1:10-1:30 with latex diluent buffer for use in the rapid EIA described below.
Serum specimens were diluted 1:8 for the rapid EIA in a serum diluent buffer consisting of 0.03M Tris, pH 8 containing 0.8% NaCl, 0.05% NaN₃, 0.05% Triton x-100 (trademark). […] The reaction was stopped after 3-4 minutes by adding a drop of 4N H₂SO₄, and the test device could be retained as a permanent record of positive (blue-purple color) or negative (white membrane) until the results were recorded. […]

Sequence: ARLNSWGCAFRQVCHGC [2S25]
- discrimination of HIV-2+ from HIV-2- serum samples: capable of discriminating
